Source: ChEMBL document CHEMBL1158475, “Identification of novel falcipain-2 inhibitors as potential antimalarial agents through structure-based virtual screening” (J Med Chem, 2009)
Active and inactive are the calls of the source. No cut-off for these calls is given here.

What was measured:
[1] = tested on: Plasmodium falciparum; assay: Inhibition of Plasmodium falciparum recombinant falcipain-2 at 10 uM by microtiter plate spectrofluorimetry
[2] = Inhibition of Plasmodium falciparum recombinant falcipain-2 by microtiter plate spectrofluorimetry
[3] = tested on: Plasmodium falciparum; assay: Inhibition of Plasmodium falciparum recombinant falcipain-2 at 10 uM after dialysis in refolding buffer for 8 hrs by SDS-PAGE
[4] = tested on: Plasmodium falciparum; assay: Binding affinity to Plasmodium falciparum recombinant falcipain-2 by isothermal titration calorimetry
[5] = tested on: Plasmodium falciparum; assay: Induction of Plasmodium falciparum recombinant falcipain-2 aggregation by FPLC gel filtration chromatography
[6] = tested on: Plasmodium falciparum; assay: Induction of Plasmodium falciparum recombinant falcipain-2 aggregation by pseudonative gel analysis

Row | Structure (SMILES) | inhibition [1] [%] | Activity [3] | Activity [4] | Activity [5] | Activity [6] | IC50 [2] [µM]
1 | C=CCn1c(SCC(=O)Nc2sc3c(c2C(N)=O)CCC3)nc2scc(-c3ccccc3)c2c1=O | 53.1 | inactive | inactive | inactive | inactive | 2.4
2 | CC(C)C[C@H](NC(=O)[C@H]1O[C@@H]1C(=O)O)C(=O)NCCCCN=C(N)N [E-64] | 97.4 | Active | Active |  |  | 0.017
3 | CC(=O)c1ccc(NC(=O)CSc2nnc(COc3cccc4cccnc34)n2-c2ccccc2)cc1 | 21.9 |  |  |  |  | > 50
4 | CCn1c(CNC(=O)Cc2ccc(OC)cc2)nnc1SCC(=O)Nc1ccc(Cl)c(Cl)c1 | 25.9 |  |  |  |  | 20
5 | O=C(Cc1nnc(NC(=O)c2ccc(Br)cc2)s1)NNC(=O)c1ccc(Br)cc1 | 20.2 |  |  |  |  | > 50
6 | CCOC(=O)c1ccc(NC(=O)CSc2nnc(-c3ccccc3Br)n2CC)cc1 | 38.3 |  |  |  |  | 17.1
7 | COc1cccc(/C=N/NC(=O)c2ccn(Cc3ccc(Cl)cc3Cl)n2)c1O | 21.8 |  |  |  |  | > 50
8 | Cc1c(Cl)cccc1-c1ccc(/C=N\Nc2nncn2/N=C/c2ccc(-c3cccc(Cl)c3C)o2)o1 | 56.5 |  |  |  |  | 6.4
9 | CC(=O)c1ccc(-c2ccc(/C=N/Nc3nc(N4CCCCC4)nc(N4CCCCC4)n3)o2)cc1 | 27.9 |  |  |  |  | 20
10 | O=C(NC(Cc1c[nH]c2ccccc12)C(=O)NCc1ccccc1)Oc1ccccc1 (centres undefined) | 29.4 |  |  |  |  | 29.7
11 | O=C(Cn1nnc(-c2ccccc2)n1)N/N=C/c1ccccc1OCc1ccc(Cl)cc1Cl | 28.9 |  |  |  |  | 20
12 | O=C(CSc1nnc(SCC(=O)Nc2ccc(Cl)cc2)s1)Nc1ccc(Cl)cc1 | 28.2 |  |  |  |  | 20
13 | CC(Sc1nc(-c2ccccc2O)n[nH]1)C(=O)Nc1cccc(Cl)c1 (centres undefined) | 71.4 |  |  |  |  | 5.8

The next lines start with results.

Row | inhibition [1] [%] | Activity [3] | Activity [4] | Activity [5] | Activity [6] | Structure (SMILES) | IC50 [2] [µM]
14 | 20.2 |  |  |  |  | Cc1cc(C)nc(NS(=O)(=O)c2ccc(NC(=S)NC(=O)c3cccnc3)cc2)n1 | > 50
15 | 29 |  |  |  |  | Cc1ccc(NC(=O)CN2C(=O)S/C(=C/c3ccc(-c4ccc(Cl)c(C(=O)O)c4)o3)C2=O)cc1 | 20
16 | 41.4 |  |  |  |  | O=C(CN1C(=O)S/C(=C/c2ccc(-c3ccc(Cl)c(C(=O)O)c3)o2)C1=O)Nc1ccc2c(c1)OCO2 | 10.9
17 | 20.2 |  |  |  |  | COc1cccc(OCC(=O)NC(=S)Nc2cccc(-c3nc4ncccc4o3)c2C)c1 | > 50
18 | 23.4 |  |  |  |  | CC(=O)c1ccc(NC(=O)CSc2nnc(COc3ccc4ccccc4c3)n2-c2ccccc2)cc1 | > 50
19 | 21.9 |  |  |  |  | CCc1ccc(OCc2nnc(SCC(=O)Nc3ccc4ccccc4c3)o2)cc1 | > 50
20 | 44 |  |  |  |  | Nc1nnc(SCC(=O)Nc2ccc3nc(SCc4cccc5ccccc45)sc3c2)s1 | 15
21 | 36.9 |  |  |  |  | O=C(COC(=O)c1ccc(S(=O)(=O)c2cccc(S(=O)(=O)N3CCOCC3)c2)cc1)c1ccccc1 | 20
22 | 48.5 |  |  |  |  | O=C(COc1ccc2ccccc2c1)NCC(=O)N/N=C/c1ccc(-c2ccc(Cl)c(Cl)c2)o1 | 13.2
23 | 20.3 |  |  |  |  | O=C(CCc1ccc(S(=O)(=O)NCCc2ccccc2)cc1)Nc1ccc2c(c1)OCCO2 | 54.2
24 | 21.3 |  |  |  |  | Cc1cccc(OCC(=O)Nc2nc(-c3ccc(S(=O)(=O)N4CCOCC4)cc3)cs2)c1 | > 50
25 | 26.9 |  |  |  |  | COc1cc(NS(=O)(=O)c2ccc(NC(=O)c3cc(-c4cccc(C)c4)nc4ccccc34)cc2)ncn1 | 20
26 | 20.8 |  |  |  |  | COc1ccc(C(=O)NNC(=O)CSc2nnc(COc3ccc4ccccc4c3)n2C)cc1 | > 50
27 | 36.6 |  |  |  |  | CCOC(=O)c1c(-c2ccc(-c3ccccc3)cc2)csc1NC(=O)CSc1nnc2sc3ccccc3n12 | 15
28 | 25.2 |  |  |  |  | O=C(COc1cccc(Cl)c1)Nc1nc(-c2ccc(S(=O)(=O)N3CCOCC3)cc2)cs1 | 20
29 | 25.1 |  |  |  |  | CC(NC(=O)COc1ccc2ccccc2c1)C(=O)N/N=C/c1cccc(Cl)c1Cl (centres undefined) | > 50
